# Experimental data reported in US10624947B2, “Bactericidal peptides and uses thereof” (INDIANA UNIVERSITY RESEARCH AND TECHNOLOGY CORPORATION, priority 2016, dated 2020).
# Entries after “also recorded” stand apart in the source; their conditions may differ. Like-named read-outs stand apart in the source and are kept apart here. Square brackets hold non-standard residues; d marks the D form. Ends that are not written are not given here. Peptide text beside a SMILES is read from it. AEEA = NCCOCCOCC(=O)O
# What was measured:
# Pseudomonas aeruginosa = format: cell-based
# Experimental: (§4) Antimicrobial activity was determined using the broth microdilution method based on the general recommendation of the Clinical and Laboratory Standards Institute. Bacteria were grown in Mueller-Hinton broth at 37° C. until OD625 reached 0.06, and then bacteria were further diluted into 1:20 for later use. […] 10 microliter (μL) of diluted bacteria was mixed with 90 μL of peptides at varying concentrations followed by incubation at 37° C. for 16-18 hours. The MIC is the lowest peptide concentration at which visible growth was inhibited. The MIC value was determined at least twice in independent experiments and typically in 3-4 assays.
# [1] = Toxicity of peptides injected intraperitoneally; format: in vivo, mice; conditions: intraperitoneal, 10 or 20 μM
# Experimental: (§1) FIGS. 23A, B show the efficacy and toxicity of modified peptides in mice. […] The survival of mice injected intraperitoneally with iron dextran at 48 h after intraperitoneal injection of 10 or 20 μM of the modified peptides. […] Vibrio vulnificus (V. v.) strain CMCP6 was injected at 1×10^6 CFU. […] All mice receive iron dextran by intraperitoneal injection. Where indicated, 1 h later 10^6 bacterial CFU in 100 μL was injected into the peritoneum (opposite side). 1 h later, 100 μL of the peptide at the indicated concentration was administered on the same side as the bacterial injection.
# (§2) Since B22a was effective in preventing infection of V. vulnificus in a surgical incision model, we tested it for efficacy for systemic infection in a mouse septicemia model (1). Groups of mice (strain CD-1) were first injected with […], followed 1 h later with an intraperitoneal injection of 1×10e6 colony forming units of V. vulnificus strain […]. The B22a was then injected intraperitoneally 1 h later and morbidity was monitored hourly for two days.
# PB22N and other modified peptides were tested in a septicemic mouse model. V. vulnificus is a highly-pathogenic bacterium, causing septicemia and high mortality. In mice injected intraperitoneally with V. vulnificus, the majority of the mice had to be euthanized within 24 h due to severe symptoms associated with septicemia (FIG. 23B). […] PB22N was effective in preventing mice from succumbing to systemic infection by the highly virulent V. vulnificus.
# Vibrio vulnificus = experiment: Lethal sepsis model, surgical incision infection; conditions: no V. vulnificus
# Experimental: The number of symptom-less mice in cages of 5 mice were recorded as a function of time. About 50 colony forming units of V. vulnificus were introduced into a surgical incision. The antimicrobial peptide B22 was introduced into the incision at 5 μM 1 h after the introduction of V. vulnificus to the surgical incision.
# A lethal sepsis model from Vibrio vulnificus infection of CD-1 mice was selected. […] Cages of 5 mice were monitored every 2 h.
# P. aeruginosa PAO1 = experiment: Bactericidal activity, viable colony formation; format: cell-based, Pseudomonas aeruginosa; conditions: for Viable colony formation, P. aeruginosa PAO1 / Fold reduction, P. aeruginosa PAO1: 2 μM peptide for 30 min; for Fold reduction, P. aeruginosa PAO1: versus mock
# Experimental: (§3) The broth dilution assay tested for the inhibition of growth. To determine whether B22a has bactericidal activity, viable colonies that formed after bacteria were treated with 2 μM of B22a for 30 min were enumerated (Table 7). Peptide B22a reduced viable colony formation by E. coli by over 2 orders of magnitude. B22a reduced viable colony formation by P. aeruginosa by over 3 orders of magnitudes. B22a, like its predecessor B22, is a bactericidal for Gram-negative bacteria.
# E. coli ATCC 25922 = experiment: Bactericidal activity, viable colony formation; format: cell-based, Escherichia coli; conditions: for Viable colony formation, E. coli ATCC 25922 / Fold reduction, E. coli ATCC 25922: 2 μM peptide for 30 min; for Fold reduction, E. coli ATCC 25922: versus mock
# Experimental: as §3
# 19 Gram-negative strains = experiment: MIC panel, number of strains inhibited; format: cell-based; conditions: of 19 Gram-negative strains
# Experimental: as §4
# [2] = tested on: human red blood cells (hRBCs); experiment: Hemolytic activity; format: cell-based
# Experimental: The amount of hemoglobin released was measured by the absorbance at 435 nm after a 60-minute incubation with the antimicrobial peptide. The percentage of hRBC lysis was normalized to the amount hemoglobin released by the suspension of the hRBCs in deionized water. The background amount of hRBC lysis was determined by adding phosphate buffered saline (PBS) at the same volume as 8 μM of the peptide to the hRBC for 1 h.
# The hemolytic activities of peptides were determined using human red blood cells (hRBCs) (Innovative Research, Inc., cat. # IPLA-WB3-18103). The hRBCs were washed three times with PBS and then resuspended in PBS. The hRBCs solution was mixed with serial dilutions of the peptides in PBS buffer. The reaction mixtures were incubated for 45 min at 37° C. After centrifugation at 94×g for 10 min, the intact hRBCs were pelleted and the hemoglobin released from hRBCs was monitored by measuring the absorbance of the supernatant at 415 nm. The background level of absorbance was measured in sampled incubated with only PBS buffer. 100% hemolysis was determined in sampled incubated with water. The percentage of hemolysis was calculated according to the following equation. Percentage of hemolysis=[(Asample−Ablank)/Awater]*100%
# Mammalian cells are thought to be less susceptible to cathelicidin peptides in part because the composition of their membrane will be less likely to interact with the peptides. To address this directly, human red blood cells (hRBCs) were tested for lysis after a 45-minute incubation with the peptides. The total lysis of hRBCs was determined by adding water to the cells. The amount of lysis during handling was determined by the addition of phosphate buffered saline at the same volume as that of the peptides.
# Cultured human cells = experiment: MTT cytotoxicity assay; format: cell-based
# P. aeruginosa = experiment: Growth rate of culture, optical density; format: cell-based, Pseudomonas aeruginosa; conditions: 30 nM peptide
# Experimental: FIG. 21 is a graph showing of peptide B22 (mock), B22a and B22m1 (each at […]) can reduce bacterial growth of P. aeruginosa, wherein the bacteria were grown in a plate reader at 37° C. and shaken. Optical density was monitored every ten (10) minutes to track the growth rate.
# This low concentration of the peptide should further decrease the possibility of peptide oligomerization, as oligomerization should be dependent on the concentration of the peptide. The growth of the bacterial culture was then monitored over time. […] The cell division time of E. coli and Enterobacter cloacae were also in the absence or presence of 100 nM of B22a. The presence of B22a increased the doubling time of both bacterial by more than 2-fold. […] Should B22a and B22m1 inhibit bacteria growth as well as kill bacteria through the formation of higher order structures in the membrane, the peptides may have multiple mechanisms to act against bacteria survival. Peptides that act by multiple mechanisms may result in lower bacterial resistance to the peptides.
# E. coli Top10pHNSHP45 = experiment: Killing of colistin-resistant E. coli harboring mcr-1 plasmid; format: cell-based, Escherichia coli; conditions: for Reduction of Top10pHNSHP45 colony formation: 5 minute incubation (FIG. 12B)
# Experimental: 1×10^5 CFUs of the bacteria were incubated for 30 min with the concentration of the peptides or colistin shown. Approximately 500 CFUs were then added as a droplet onto nonselective media for 18 h. […] The numbers are the means of three independent assays and those in parenthesis are the range for one standard deviation.
# Each antimicrobial peptide was assayed at a final concentration of 2 μM. The number of viable bacterial colonies were determined by plating on a non-selective media and enumerated. Each result is the average of three independent assays. The fold reduction in the colony forming units (CFU) was calculated by dividing the number of CFUs in the mock-treated sample with the number in the peptide-treated samples.
# V. harveyi = experiment: Vibrio growth with increasing peptide concentration; format: cell-based; conditions: increasing concentrations of SMAP-29C
# Experimental: Bacteria within Vibrio genus are highly sensitive to the SMAP-29C peptide. Various strains of Vibrio were treated with increasing concentrations of SMAP-29C (See FIG. 7).
# V. fischeri = experiment: Vibrios killing activity; format: cell-based; conditions: increasing concentrations of SMAP-29C
# Experimental: (§5) Vibrios bacteria such as V. angustum or V fischeri were cultured in LM at 30° C. The V. angustum culture was 200× diluted, V. fischeri culture was 40× diluted. […] The peptides were incubated with the bacteria for 1 hour at 30° C. before plated into the bacteria culture (100 μL peptides and 20 μL mock). The cultures were incubated overnight and Colony Forming Units (CFUs) were counted.
# V. angustum = experiment: Vibrios killing activity; format: cell-based; conditions: increasing concentrations of SMAP-29C
# Experimental: as §5
# Toll-like receptor 3 = experiment: Poly(I:C)-induced cytokine production in BEAS-2B cells, ELISA; format: cell-based, human; conditions: peptide 2 μM
# Experimental: Lung epithelial BEAS-2B cells were induced with poly(I:C) at 0.1 μg/ml and the amount of IL-6 secreted into the media 20 h later was assessed by ELISA. Where present, the antimicrobial peptide was at a final concentration of 2 μM.
# IL-6 production was quantified by ELISA using the OptEIA™ kit (BD Biosciences). A typical assay used 2×10^4 BEAS-2B cells/well grown for 24 h in flat-bottom 96-well plates. Poly(I:C) was added to a final concentration of 0.13 μg/ml.
# V. vulnificus = experiment: Iron-dextran septicemia model; format: in vivo, mice (strain CD-1); conditions: 10 or 20 μM intraperitoneally 1 h after V. vulnificus
# Experimental: as §1, §2
# PB22N and other modified peptides were tested in a septicemic mouse model. V. vulnificus is a highly-pathogenic bacterium, causing septicemia and high mortality. In mice injected intraperitoneally with V. vulnificus, the majority of the mice had to be euthanized within 24 h due to severe symptoms associated with septicemia (FIG. 23B). […]
# [3] = tested on: twenty representative Gram-negative bacteria of the Enterobacteriacea; experiment: MIC panel; format: cell-based; conditions: Table 10
# From the text: The lack of efficacy of B22a in inhibiting systemic bacterial infection may have been due to it not being sufficiently stable in vivo. Therefore, three peptides were synthesized that contain the B22 amino acid sequence with additional modifications. Peptide AB22a (SEQ ID No. 32) has an N-terminal acetyl group (CH3C(O)) and a C-terminal amide (NH2). Peptide AB22P (SEQ ID No. 33) has an N-terminal acetyl group and a C-terminal polyethyleneglycol (PEG) (PEG=conjugated 8-amino 3,6-dioxaoctanoic acid). Peptide PB22N (SEQ ID No. 34) has a PEG at the N-terminus. In vitro, PB22N was effective in inhibiting the growth of the majority of the Gram-negative bacteria of the Enterobacteriacea. […] PB22N was also efficacious in inhibiting antibiotic-resistant clinical isolates of Klebsiella pneumoniae (Table 11).
# Experimental for Enterobacter cloacae: as §4
# Experimental for Enterococcus faecalis: as §4
# Experimental for Escherichia coli: as §4
# Experimental for Klebsiella pneumoniae: as §4
# Experimental for Serratia marcescens: as §4
# Experimental for Staphylococcus aureus: as §4
molecule,measurement,setting,value
FRKKLKKLFKKLSPVIPLLKLG-NH2 [Peptide B22a],Minimal inhibitory concentration,Klebsiella pneumoniae,2 µM
same,MIC,Pseudomonas aeruginosa,2 µM
same,Minimal inhibitory concentration,Pseudomonas aeruginosa,2 µM
same,Minimal inhibitory concentration,Enterobacter cloacae,4 µM
same,Toxicity signs in mice injected with peptide,[1],did not exhibit distress or signs of toxicity
same,Minimal inhibitory concentration,Serratia marcescens,>32 µM
same,MIC,Escherichia coli,2 µM
FRKKLKKLFKKLSPVIPLLKLG [Peptide B22],MICs with the carbapenem-resistant K. pneumoniae,Klebsiella pneumoniae,≤ 4 µM
same,MIC,Pseudomonas aeruginosa,2 µM
same,MIC,Staphylococcus aureus,>64 µM
same,MICs for two strains of S. aureus,Staphylococcus aureus,≥ 64 µM
same,MIC,Enterobacter cloacae,2 µM
same,Minimal inhibitory concentration,Enterobacter cloacae,4 µM
same,Symptoms of mice treated with B22 alone,Vibrio vulnificus,no symptom throughout the experiment
same,Minimal inhibitory concentration,Serratia marcescens,>32 µM
same,MIC,Enterococcus faecalis,>32 µM
ARKKLKKLAKKLSPVIPLLKLG-NH2 [Peptide B22m2],MIC,Pseudomonas aeruginosa,4 µM
same,Reduction of viable colony formation by P. aeruginosa,P. aeruginosa PAO1,more than 2 logs
same,"Viable colony formation, P. aeruginosa PAO1",P. aeruginosa PAO1,7.3 × 10^3
same,"Fold reduction, P. aeruginosa PAO1",P. aeruginosa PAO1,164
same,MIC,Escherichia coli,4 µM
same,"Viable colony formation, E. coli ATCC 25922",E. coli ATCC 25922,8.7 × 10^4
same,"Fold reduction, E. coli ATCC 25922",E. coli ATCC 25922,9
LLGDFFRKSKEKIGKEFKRIVQRIKDFLR [LL-29],Number of strains inhibited at 16 μg/ml,19 Gram-negative strains,4/19
GRFKRLRKKLKKLFKKLSPVIPLLHLG [BMAP-27B],RBC lysis,[2],decreased RBC lysis compared to the control H2O
same,MIC,Pseudomonas aeruginosa,4 µM
same,Minimal inhibitory concentration,Pseudomonas aeruginosa,4 µM
same,MIC,Staphylococcus aureus,>64 µM
same,MIC,Enterobacter cloacae,4 µM
same,Minimal inhibitory concentration,Enterobacter cloacae,4 µM
same,"Cytotoxicity, MTT assay",Cultured human cells,no increased cytotoxicity compared to the controls
FRKKLKKLAKKLSPVIPLLKLG-NH2 [Peptide B22m1],MIC,Pseudomonas aeruginosa,2 µM
same,Killing of P. aeruginosa compared with B22a,P. aeruginosa PAO1,comparable killing
same,"Viable colony formation, P. aeruginosa PAO1",P. aeruginosa PAO1,<20
same,"Fold reduction, P. aeruginosa PAO1",P. aeruginosa PAO1,>6000
same,MIC,Escherichia coli,2 µM
same,Killing of E. coli compared with B22a,E. coli ATCC 25922,comparable killing
same,"Viable colony formation, E. coli ATCC 25922",E. coli ATCC 25922,4.7 × 10^5
same,"Fold reduction, E. coli ATCC 25922",E. coli ATCC 25922,170
same,Growth rate of P. aeruginosa,P. aeruginosa,perceptibly reduced
Colistin [reference compound],MIC,"Klebsiella pneumoniae; Table 8, clinical isolate 262 (NDM1+)",> 8 µg/mL
same,MIC,"Klebsiella pneumoniae; Table 8, clinical isolate 284",16 µg/mL
same,MIC,"Klebsiella pneumoniae; Table 8, clinical isolate 330",> 16 µg/mL
same,MIC,"Klebsiella pneumoniae; Table 8, clinical isolate 361",> 16 µg/mL
same,MIC,"Klebsiella pneumoniae; Table 11, clinical isolate 265",>8 µg/mL
same,MIC,"Klebsiella pneumoniae; Table 11, clinical isolate 284",16 µg/mL
same,MIC,"Klebsiella pneumoniae; Table 11, clinical isolate 330",>16 µg/mL
same,MIC,"Klebsiella pneumoniae; Table 11, clinical isolate 361",>16 µg/mL
same,Killing of E. coli Top10pHNSHP45,"E. coli Top10pHNSHP45; 2 μM, 5 minute incubation (FIG. 12A)",resistant
same,Reduction of Top10pHNSHP45 colony formation,E. coli Top10pHNSHP45,little effect
RLGNFFRKVKEKIGGGLKKVGQKIKDFLGNLVPRTAS [RL-37],Number of strains inhibited at 16 μg/ml,19 Gram-negative strains,7/19
RGLRRLGRKIAHGVKKCGPTVLRIIRIAGC [SMAP-29C],Reduction of Top10pHNSHP45 colony formation,E. coli Top10pHNSHP45,several logs
same,Growth of V. harveyi,V. harveyi,growth reduction correlation to the concentration of SMAP-29C
same,Growth of V. fischeri,V. fischeri,growth reduction correlation to the concentration of SMAP-29C
same,Growth of V. angustum,V. angustum,growth reduction correlation to the concentration of SMAP-29C
CC[C@H](C)[C@H](NC(=O)[C@@H](NC(=O)[C@@H]1CCCN1C(=O)[C@H](CO)NC(=O)[C@H](CC(C)C)NC(=O)[C@H](CCCCN)NC(=O)[C@H](CCCCN)NC(=O)[C@H](Cc1ccccc1)NC(=O)[C@H](CC(C)C)NC(=O)[C@H](CCCCN)NC(=O)[C@H](CCCCN)NC(=O)[C@H](CC(C)C)NC(=O)[C@H](CCCCN)NC(=O)[C@H](CCCCN)NC(=O)[C@H](CCCNC(=N)N)NC(=O)[C@H](Cc1ccccc1)NC(C)=O)C(C)C)C(=O)N1CCC[C@H]1C(=O)N[C@@H](CC(C)C)C(=O)N[C@@H](CC(C)C)C(=O)N[C@@H](CCCCN)C(=O)N[C@@H](CC(C)C)C(=O)NCC(=O)NCCOCCOCC(=O)O [AB22P] (Ac-FRKKLKKLFKKLSPVIPLLKLG[AEEA]-OH),Toxicity signs in mice injected with peptide,[1],no obvious symptoms were observed; also recorded: no obvious effects on mice behavior or appearance
GRFKRFRKKLKKLFKKLSPVIPLL [BMAP-24],MICs with the carbapenem-resistant K. pneumoniae,Klebsiella pneumoniae,≤ 4 µM
same,MIC,Staphylococcus aureus,>64 µM
same,MICs for two strains of S. aureus,Staphylococcus aureus,≥ 64 µM
same,MIC,Enterobacter cloacae,2 µM
same,MIC,Enterococcus faecalis,4 µM
same,Viable colonies of Top10pHNSHP45 relative to BMAP27B,E. coli Top10pHNSHP45; 2 μM (FIG. 13),reduced the number of viable colonies relative to BMAP27B
same,IL-6 production,Toll-like receptor 3,do not enhance
same,IL-8 production,Toll-like receptor 3,do not enhance
CC[C@H](C)[C@H](NC(=O)[C@@H](NC(=O)[C@@H]1CCCN1C(=O)[C@H](CO)NC(=O)[C@H](CC(C)C)NC(=O)[C@H](CCCCN)NC(=O)[C@H](CCCCN)NC(=O)[C@H](Cc1ccccc1)NC(=O)[C@H](CC(C)C)NC(=O)[C@H](CCCCN)NC(=O)[C@H](CCCCN)NC(=O)[C@H](CC(C)C)NC(=O)[C@H](CCCCN)NC(=O)[C@H](CCCCN)NC(=O)[C@H](CCCNC(=N)N)NC(=O)[C@H](Cc1ccccc1)NC(=O)COCCOCCN)C(C)C)C(=O)N1CCC[C@H]1C(=O)N[C@@H](CC(C)C)C(=O)N[C@@H](CC(C)C)C(=O)N[C@@H](CCCCN)C(=O)N[C@@H](CC(C)C)C(=O)NCC(N)=O [PB22N] (H-[AEEA]FRKKLKKLFKKLSPVIPLLKLG-NH2),Minimal inhibitory concentration,Klebsiella pneumoniae,1 µM
same,Outcome in mouse septicemia model,V. vulnificus,survived and did not exhibit symptoms of infection
same,Minimal inhibitory concentration,Pseudomonas aeruginosa,1 µM
same,MICs relative to B22a,[3],approximately two-fold better
same,Toxicity signs in mice injected with peptide,[1],no obvious symptoms were observed; also recorded: no obvious effects on mice behavior or appearance
same,Minimal inhibitory concentration,Escherichia coli,1 µM
"GLRKKFRKTRKRIQKLGRKIGKTGRKVWKAWREYGQIPYPCRI [CAP-11, reference compound]",Number of strains inhibited at 16 μg/ml,19 Gram-negative strains,16/19
same,Minimal inhibitory concentration,Escherichia coli,>32 µg/mL
